How the values were obtained:
Assay type in all cases: cell-based
Conditions in all cases: 24 h, HEK293T GFP reporter
CK1α = target: T1, CK1α (Homo sapiens, UniProt P48729+Q96SW2); assay: Flow cytometry for measuring degradation, HEK293T GFP-POI reporter cells (CK1α)
T1 construct: expressed in transfected cells; host or cells: HEK293T (lentiviral transduction, puromycin selection, FACS sorting)

IKZF1 = target: T2, IKZF1 (Homo sapiens, UniProt Q13422+Q96SW2); assay: Flow cytometry for measuring degradation, HEK293T GFP-POI reporter cells (IKZF1)
T2 construct: expressed in transfected cells; host or cells: HEK293T (lentiviral transduction, puromycin selection, FACS sorting)

IKZF2 = target: T3, IKZF2 (Homo sapiens, UniProt Q96SW2+Q9UKS7); assay: Flow cytometry for measuring degradation, HEK293T GFP-POI reporter cells (IKZF2)
T3 construct: expressed in transfected cells; host or cells: HEK293T (lentiviral transduction, puromycin selection, FACS sorting)

GSPT1 = GSPT1 (Homo sapiens, UniProt P15170+Q96SW2); assay: Flow cytometry for measuring degradation, HEK293T GFP-POI reporter cells (GSPT1); parameters: expressed in transfected cells; host or cells: HEK293T
Sequence of GSPT1 (P15170 whole entry): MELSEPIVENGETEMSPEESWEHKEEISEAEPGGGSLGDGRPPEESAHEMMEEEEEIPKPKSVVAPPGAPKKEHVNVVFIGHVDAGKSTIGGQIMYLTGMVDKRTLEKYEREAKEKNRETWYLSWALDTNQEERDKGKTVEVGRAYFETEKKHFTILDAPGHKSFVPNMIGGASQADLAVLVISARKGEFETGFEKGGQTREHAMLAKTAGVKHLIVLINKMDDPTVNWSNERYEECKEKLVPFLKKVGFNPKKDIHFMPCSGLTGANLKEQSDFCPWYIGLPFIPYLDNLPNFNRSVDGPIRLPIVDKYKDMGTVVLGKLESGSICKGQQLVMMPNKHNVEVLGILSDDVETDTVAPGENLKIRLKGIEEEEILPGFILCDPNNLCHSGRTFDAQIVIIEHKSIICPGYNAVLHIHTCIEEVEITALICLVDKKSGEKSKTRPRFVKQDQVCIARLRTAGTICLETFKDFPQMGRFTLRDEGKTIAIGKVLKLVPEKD
Sequence of GSPT1 (Q96SW2 whole entry): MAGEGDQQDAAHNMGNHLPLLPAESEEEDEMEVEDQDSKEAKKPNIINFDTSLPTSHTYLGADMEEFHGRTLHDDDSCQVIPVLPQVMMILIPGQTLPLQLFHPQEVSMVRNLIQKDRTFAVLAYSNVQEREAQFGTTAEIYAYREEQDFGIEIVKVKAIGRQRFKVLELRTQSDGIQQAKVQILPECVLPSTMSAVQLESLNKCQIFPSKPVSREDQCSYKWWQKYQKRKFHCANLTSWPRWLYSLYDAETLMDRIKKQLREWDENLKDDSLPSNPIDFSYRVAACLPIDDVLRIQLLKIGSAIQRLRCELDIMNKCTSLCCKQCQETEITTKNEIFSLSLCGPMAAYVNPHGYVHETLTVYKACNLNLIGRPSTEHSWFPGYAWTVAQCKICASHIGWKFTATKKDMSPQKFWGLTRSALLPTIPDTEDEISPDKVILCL
Sequence of GSPT1 (Q16531 whole entry partner): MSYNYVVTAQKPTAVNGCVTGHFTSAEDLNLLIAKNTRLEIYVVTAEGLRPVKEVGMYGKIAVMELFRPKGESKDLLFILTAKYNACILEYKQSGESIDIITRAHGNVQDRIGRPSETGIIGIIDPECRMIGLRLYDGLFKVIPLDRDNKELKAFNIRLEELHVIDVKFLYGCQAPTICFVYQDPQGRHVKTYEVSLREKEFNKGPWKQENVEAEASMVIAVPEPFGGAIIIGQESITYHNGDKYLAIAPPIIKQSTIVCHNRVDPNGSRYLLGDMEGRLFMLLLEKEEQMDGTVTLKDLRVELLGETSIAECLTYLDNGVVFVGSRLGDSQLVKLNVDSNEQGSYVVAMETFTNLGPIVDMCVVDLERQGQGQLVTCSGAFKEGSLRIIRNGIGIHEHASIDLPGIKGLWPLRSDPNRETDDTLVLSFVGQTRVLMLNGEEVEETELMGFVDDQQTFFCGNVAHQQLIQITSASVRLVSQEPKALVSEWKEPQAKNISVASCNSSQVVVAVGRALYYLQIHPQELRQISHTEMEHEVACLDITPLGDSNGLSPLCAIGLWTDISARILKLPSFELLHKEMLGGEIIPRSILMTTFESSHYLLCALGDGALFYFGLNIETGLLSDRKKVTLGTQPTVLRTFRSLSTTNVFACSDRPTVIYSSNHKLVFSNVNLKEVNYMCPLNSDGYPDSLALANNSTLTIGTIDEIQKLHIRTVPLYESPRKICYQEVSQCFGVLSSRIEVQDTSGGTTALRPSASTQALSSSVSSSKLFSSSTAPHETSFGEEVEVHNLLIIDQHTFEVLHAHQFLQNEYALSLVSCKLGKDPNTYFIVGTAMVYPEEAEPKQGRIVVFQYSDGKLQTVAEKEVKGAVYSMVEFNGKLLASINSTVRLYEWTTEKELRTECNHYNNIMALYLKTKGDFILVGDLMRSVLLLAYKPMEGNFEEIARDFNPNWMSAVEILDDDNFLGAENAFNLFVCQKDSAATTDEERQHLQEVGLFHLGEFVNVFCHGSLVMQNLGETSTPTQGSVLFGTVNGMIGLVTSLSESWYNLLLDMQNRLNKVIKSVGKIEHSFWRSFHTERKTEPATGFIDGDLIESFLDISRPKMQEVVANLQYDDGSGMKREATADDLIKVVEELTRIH

T2 sequence (Q13422 whole entry): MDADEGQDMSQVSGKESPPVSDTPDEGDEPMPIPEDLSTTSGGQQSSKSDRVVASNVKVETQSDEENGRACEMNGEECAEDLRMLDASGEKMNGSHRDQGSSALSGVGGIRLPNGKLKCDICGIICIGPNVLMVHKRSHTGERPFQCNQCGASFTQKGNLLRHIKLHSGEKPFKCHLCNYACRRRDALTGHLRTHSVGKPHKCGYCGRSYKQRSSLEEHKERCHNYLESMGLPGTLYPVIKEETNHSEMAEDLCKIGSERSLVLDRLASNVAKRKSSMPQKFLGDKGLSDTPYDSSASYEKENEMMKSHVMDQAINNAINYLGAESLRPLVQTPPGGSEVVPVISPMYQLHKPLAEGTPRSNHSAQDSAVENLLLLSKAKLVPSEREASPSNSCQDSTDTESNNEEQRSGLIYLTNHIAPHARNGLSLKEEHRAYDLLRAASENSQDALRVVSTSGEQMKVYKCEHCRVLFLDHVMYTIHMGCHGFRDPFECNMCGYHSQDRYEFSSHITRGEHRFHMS
T2 sequence (Q96SW2 whole entry): as the sequence (Q96SW2 whole entry) above
T2 sequence (Q16531 whole entry partner): as the sequence (Q16531 whole entry partner) above
T1 sequence (P48729 whole entry): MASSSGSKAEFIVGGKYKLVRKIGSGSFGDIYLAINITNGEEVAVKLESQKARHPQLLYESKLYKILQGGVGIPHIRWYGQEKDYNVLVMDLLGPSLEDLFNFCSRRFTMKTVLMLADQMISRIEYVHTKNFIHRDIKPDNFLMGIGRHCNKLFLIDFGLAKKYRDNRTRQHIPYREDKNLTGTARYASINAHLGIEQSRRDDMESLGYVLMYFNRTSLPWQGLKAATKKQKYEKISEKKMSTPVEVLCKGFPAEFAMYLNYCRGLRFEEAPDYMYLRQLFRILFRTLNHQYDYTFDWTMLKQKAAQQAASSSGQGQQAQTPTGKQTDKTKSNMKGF
T1 sequence (Q96SW2 whole entry): as the sequence (Q96SW2 whole entry) above
T1 sequence (Q16531 whole entry partner): as the sequence (Q16531 whole entry partner) above
T3 sequence (Q9UKS7 whole entry): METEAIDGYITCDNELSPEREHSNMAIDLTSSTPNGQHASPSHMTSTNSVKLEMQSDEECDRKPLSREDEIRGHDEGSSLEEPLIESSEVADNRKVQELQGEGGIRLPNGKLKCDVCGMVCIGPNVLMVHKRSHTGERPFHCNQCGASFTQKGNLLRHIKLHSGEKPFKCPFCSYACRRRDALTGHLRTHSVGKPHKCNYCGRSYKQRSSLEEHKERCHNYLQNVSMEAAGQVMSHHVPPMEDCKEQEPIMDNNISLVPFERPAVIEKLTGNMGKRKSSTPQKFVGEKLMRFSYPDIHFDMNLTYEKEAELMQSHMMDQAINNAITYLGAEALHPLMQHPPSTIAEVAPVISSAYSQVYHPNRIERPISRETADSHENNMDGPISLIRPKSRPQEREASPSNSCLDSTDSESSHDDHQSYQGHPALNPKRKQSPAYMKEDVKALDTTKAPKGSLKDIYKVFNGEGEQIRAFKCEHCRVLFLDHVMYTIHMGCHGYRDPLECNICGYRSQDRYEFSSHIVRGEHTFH
T3 sequence (Q96SW2 whole entry): as the sequence (Q96SW2 whole entry) above
T3 sequence (Q16531 whole entry partner): as the sequence (Q16531 whole entry partner) above

Structure (SMILES) | CK1α % degradation at 100 nM (CK1α) | CK1α % degradation at 1 μM (CK1α) | IKZF1% degradation at 100 nM (IKZF1) | IKZF1% degradation at 1 μM (IKZF1) | IKZF2% degradation at 100 nM (IKZF2) | IKZF2% degradation at 1 μM (IKZF2) | GSPT1% degradation at 100 nM (GSPT1) | GSPT1% degradation at 1 μM (GSPT1)
O=C1CCC(N2Cc3cc(NC(=O)c4ccc(Sc5ccccc5)cc4)ccc3C2=O)C(=O)N1 (stereo not shown) [DEG-73, N-(2-(2,6-dioxopiperidin-3-yl)-1-oxoisoindolin-5-yl)-4-(phenylthio)benzamide] | 56.6 ± 1.2% | 60.4 ± 0.6% | 11.7 ± 0.3% | 26.3 ± 0.6% | 67.4 ± 1.2% | 87.8 ± 0.3% | 11.1 ± 1.4% | 19.8 ± 0.8%
COc1ccc2c(c1)OCC(C(=O)Nc1ccc3c(c1)CN(C1CCC(=O)NC1=O)C3=O)=C2 (stereo not shown) [DEG-74, N-(2-(2,6-dioxopiperidin-3-yl)-1-oxoisoindolin-5-yl)-7-methoxy-2H-chromene-3-carboxamide] | 59.5 ± 1.1% | 64.8 ± 0.6% | 4.3 ± 0.5% | 32.5 ± 0.4% | 57.1 ± 1.1% | 96 ± 0% | 9 ± 2.6% | 37.5 ± 2.1%
COc1cc(Oc2ccccc2)ccc1C(=O)Nc1ccc2c(c1)CN(C1CCC(=O)NC1=O)C2=O (stereo not shown) [DEG-75, N-(2-(2,6-dioxopiperidin-3-yl)-1-oxoisoindolin-5-yl)-2-methoxy-4-phenoxybenzamide] | 48.1 ± 2.2% | 64 ± 1.5% | 2.4 ± 1.1% | 7 ± 0.4% | 54.6 ± 1.1% | 83.3 ± 0.3% | 0.4 ± 1.4% | 12.6 ± 1.2%
COc1cc(C(=O)Nc2ccc3c(c2)CN(C2CCC(=O)NC2=O)C3=O)ccc1Oc1ccccc1 (stereo not shown) [DEG-76, N-(2-(2,6-dioxopiperidin-3-yl)-1-oxoisoindolin-5-yl)-3-methoxy-4-phenoxybenzamide] | 64.1 ± 0.8% | 69.9 ± 0.5% | 8.7 ± 1.8% | 17.2 ± 1.2% | 81.8 ± 0.4% | 92.8 ± 0% | 12.1 ± 0.5% | 21.3 ± 1.7%
COc1ccc2c(c1)C=C(C(=O)Nc1ccc3c(c1)CN(C1CCC(=O)NC1=O)C3=O)CO2 (stereo not shown) [DEG-78, N-(2-(2,6-dioxopiperidin-3-yl)-1-oxoisoindolin-5-yl)-6-methoxy-2H-chromene-3-carboxamide] | 65.5 ± 1.3% | 69.5 ± 1.4% | 15.7 ± 1.1% | 33.9 ± 0.9% | 75 ± 0.8% | 90.3 ± 0% | 9.2 ± 0.8% | 14.4 ± 0.5%
COc1cccc2c1C=C(C(=O)Nc1ccc3c(c1)CN(C1CCC(=O)NC1=O)C3=O)CO2 (stereo not shown) [DEG-79, N-(2-(2,6-dioxopiperidin-3-yl)-1-oxoisoindolin-5-yl)-5-methoxy-2H-chromene-3-carboxamide] | 59.4 ± 1% | 38.1 ± 3.4% | 39.4 ± 0.8% | 70.3 ± 0.2% | 74.6 ± 0.3% | 93 ± 0.1% | 24 ± 1% | 44.3 ± 1.3%
Cc1ccc2c(c1)OCC(C(=O)Nc1ccc3c(c1)CN(C1CCC(=O)NC1=O)C3=O)=C2 (stereo not shown) [DEG-80, N-(2-(2,6-dioxopiperidin-3-yl)-1-oxoisoindolin-5-yl)-7-methyl-2H-chromene-3-carboxamide] | 63.5 ± 1.5% | 66.9 ± 1.1% | 8.6 ± 0.1% | 24 ± 0.1% | 72.6 ± 0.9% | 91.5 ± 0.2% | 14.3 ± 2.1% | 28 ± 0.8%
O=C1CCC(N2Cc3cc(NC(=O)C4=Cc5ccc(C(F)(F)F)cc5OC4)ccc3C2=O)C(=O)N1 (stereo not shown) [DEG-81, N-(2-(2,6-dioxopiperidin-3-yl)-1-oxoisoindolin-5-yl)-7-(trifluoromethyl)-2H-chromene-3-carboxamide] | 66.3 ± 2% | 72 ± 0.3% | 8 ± 0.5% | 17.4 ± 3.3% | 75.1 ± 0.5% | 91.8 ± 0.1% | 2.8 ± 0.8% | 11.9 ± 1.9%
O=C1CCC(N2Cc3cc(NC(=O)C4=Cc5ccc(OC(F)(F)F)cc5OC4)ccc3C2=O)C(=O)N1 (stereo not shown) [DEG-82, N-(2-(2,6-dioxopiperidin-3-yl)-1-oxoisoindolin-5-yl)-7-(trifluoromethoxy)-2H-chromene-3-carboxamide] | 58 ± 2.2% | 62.7 ± 1.4% | 10.6 ± 1.2% | 19.9 ± 0.3% | 85.4 ± 0% | 93.3 ± 0.1% | 6.1 ± 0.3% | 12.3 ± 0.9%
O=C1CCC(N2Cc3cc(NC(=O)C4=Cc5ccc(Br)cc5OC4)ccc3C2=O)C(=O)N1 (stereo not shown) [DEG-83, 7-bromo-N-(2-(2,6-dioxopiperidin-3-yl)-1-oxoisoindolin-5-yl)-2H-chromene-3-carboxamide] | 61.9 ± 0.4% | 30.2 ± 2.3% | 12.9 ± 1% | 47.5 ± 0.2% | 80.4 ± 0.5% | 94.4 ± 0.2% | 21.8 ± 2.3% | 49 ± 0.8%
COc1cc(Br)cc2c1OCC(C(=O)Nc1ccc3c(c1)CN(C1CCC(=O)NC1=O)C3=O)=C2 (stereo not shown) [DEG-84, 6-bromo-N-(2-(2,6-dioxopiperidin-3-yl)-1-oxoisoindolin-5-yl)-8-methoxy-2H-chromene-3-carboxamide] | 64.7 ± 0.1% | 68 ± 1.8% | 12.6 ± 0.5% | 26.1 ± 0.5% | 74.4 ± 0.4% | 87.8 ± 0.2% | 1.6 ± 1.1% | 4.1 ± 2.6%
O=C1CCC(N2Cc3cc(NC(=O)C4=Cc5cc(Br)cc(Br)c5OC4)ccc3C2=O)C(=O)N1 (stereo not shown) [DEG-86, 6,8-dibromo-N-(2-(2,6-dioxopiperidin-3-yl)-1-oxoisoindolin-5-yl)-2H-chromene-3-carboxamide] | 46.5 ± 2.5% | 54.7 ± 1.2% | 12.3 ± 0.9% | 22.6 ± 0.5% | 48.7 ± 1.1% | 62.6 ± 0.5% | 5.3 ± 2% | 9.2 ± 0.7%
O=C1CCC(N2Cc3cc(NC(=O)c4ccc5c(c4)CCCC5)ccc3C2=O)C(=O)N1 (stereo not shown) [DEG-87, N-(2-(2,6-dioxopiperidin-3-yl)-1-oxoisoindolin-5-yl)-5,6,7,8-tetrahydronaphthalene-2-carboxamide] | 51.1 ± 1.2% | 56.9 ± 0.8% | 15.5 ± 1% | 27.2 ± 0.7% | 74 ± 0.5% | 89.1 ± 0.4% | 1.2 ± 2.5% | 4 ± 0.6%
O=C1CCC(N2Cc3cc(NC(=O)c4ccc5cc(O)ccc5c4)ccc3C2=O)C(=O)N1 (stereo not shown) [DEG-90, N-(2-(2,6-dioxopiperidin-3-yl)-1-oxoisoindolin-5-yl)-6-hydroxy-2-naphthamide] | 54.5 ± 0.6% | 71.1 ± 0.6% | 6 ± 0.1% | 6.3 ± 1.6% | 60 ± 1% | 89 ± 0.2% | −1.9 ± 1.4% | 7.8 ± 1.4%

Source: patent publication US20260021103A1, “IKZF2 AND CK1-ALPHA DEGRADING COMPOUNDS AND USES THEREOF” (President and Fellows of Harvard College, priority 2022, published 2026)
